Drawing on PubChem BioAssay AID328 (DTP/NCI, 2004), this text covers T/C for 13 compounds.

This test relates to BDF1 mice, P388 leukemia ip, median survival T/C. In words: NCI In Vivo Anticancer Drug Screen. Data for tumor model P388 Leukemia (intraperitoneal) in B6D2F1 (BDF1) mice. To be noted: endpoint: median survival time, higher = longer survival. In outline: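 Reported as T/C, where T is the survival measurement in dosed animals and C the same measurement in vehicle controls.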
Where [1] appears, read: dose: 2.5 mg/kg/injection, schedule: Q01DX009 (ip), vehicle: saline.
[2] abbreviates: dose: 5.0 mg/kg/injection, schedule: Q04DX003 (ip), vehicle: saline.
Where [3] appears, read: dose: 50.0 mg/kg/injection, schedule: Q01DX009 (ip), vehicle: saline with Tween-80.
[4] abbreviates: dose: 100.0 mg/kg/injection, schedule: Q01DX009 (ip), vehicle: saline with Tween-80.
The mark [5] stands for this setting: dose: 200.0 mg/kg/injection, schedule: Q01DX009 (ip), vehicle: saline with Tween-80.
Where [6] appears, read: dose: 6.25 mg/kg/injection, schedule: Q01DX009 (ip), vehicle: saline with Tween-80.
Setting [7] is: dose: 12.5 mg/kg/injection, schedule: Q01DX009 (ip), vehicle: saline with Tween-80.
[8] abbreviates: dose: 25.0 mg/kg/injection, schedule: Q01DX009 (ip), vehicle: saline with Tween-80.
[9] abbreviates: dose: 12.5 mg/kg/injection, schedule: Q04DX003 (ip), vehicle: saline with Tween-80.
Where [10] appears, read: dose: 50.0 mg/kg/injection, schedule: Q04DX003 (ip), vehicle: saline with Tween-80.
Setting [11] is: dose: 25.0 mg/kg/injection, schedule: Q04DX003 (ip), vehicle: saline with Tween-80.

Where “and” joins values, the source holds several entries; their conditions need not be identical. Identical values can stand only once. Inconclusive results and toxic doses are left out.

As for `COc1cc([C@@H]2c3cc4c(cc3[C@H](O)[C@H]3COC(=O)[C@H]23)OCO4)cc(OC)c1OC`, the T/C is, setting by setting: (dose: 1.0 mg/kg/injection, schedule: Q01DX010 (ip), vehicle: steriod suspending solution) 118 % of control; (dose: 2.0 mg/kg/injection, schedule: Q01DX010 (ip), vehicle: carboxymethylcellulose (CMC)) 171 % of control; (dose: 2.25 mg/kg/injection, schedule: Q01DX001 (ip), vehicle: other) 115 % of control; (dose: 2.25 mg/kg/injection, schedule: Q01DX010 (ip), vehicle: other) 150 % of control; (dose: 4.0 mg/kg/injection, schedule: Q01DX010 (ip), vehicle: carboxymethylcellulose (CMC)) 95 % of control; (dose: 4.5 mg/kg/injection, schedule: Q01DX010 (ip), vehicle: other) 154 % of control. The T/C (dose: 9.0 mg/kg/injection, schedule: Q01DX001 (ip), vehicle: other) was 115 % of control and the T/C (dose: 9.0 mg/kg/injection, schedule: Q01DX010 (ip), vehicle: other) is 95 % of control.
As for `CC[n+]1ccc(Nc2ccc(NC(=O)c3ccc(C(=O)Nc4ccc(Nc5cc[n+](CC)c(N)n5)cc4)cc3)cc2)nc1N`, the T/C was 150 % of control (dose: 0.12 mg/kg/injection, schedule: Q01DX009 (ip), vehicle: saline); 150 % of control (dose: 0.25 mg/kg/injection, schedule: Q01DX009 (ip), vehicle: saline); 100 % of control (dose: 0.25 mg/kg/injection, schedule: Q04DX003 (ip), vehicle: Klucel (hydroxypropylcellulose) (HPC)); 155 % of control (dose: 0.5 mg/kg/injection, schedule: Q01DX009 (ip), vehicle: saline); 95 % of control (dose: 0.5 mg/kg/injection, schedule: Q04DX003 (ip), vehicle: Klucel (hydroxypropylcellulose) (HPC)); 109 % of control (dose: 1.0 mg/kg/injection, schedule: Q04DX003 (ip), vehicle: Klucel (hydroxypropylcellulose) (HPC)). Also, the T/C (dose: 1.65 mg/kg/injection, schedule: Q01DX009 (ip), vehicle: saline) was 160 % of control; the T/C under setting [1] was 175 % of control and 177 % of control; the T/C (dose: 3.75 mg/kg/injection, schedule: Q01DX009 (ip), vehicle: saline) was 170 % of control; the T/C under setting [2] was 177 % of control; the T/C (dose: 10.0 mg/kg/injection, schedule: Q01DX009 (ip), vehicle: saline) was 190 % of control; the T/C (dose: 20.0 mg/kg/injection, schedule: Q01DX009 (ip), vehicle: saline) is 300 % of control. For the same compound, the T/C is 195 % of control (dose: 30.0 mg/kg/injection, schedule: Q04DX003 (ip), vehicle: saline); 200 % of control (dose: 45.0 mg/kg/injection, schedule: Q04DX003 (ip), vehicle: saline); 200 % of control (dose: 50.0 mg/kg/injection, schedule: Q04DX003 (ip), vehicle: saline); 216 % of control (dose: 65.0 mg/kg/injection, schedule: Q04DX003 (ip), vehicle: saline); 109 % of control (dose: 80.0 mg/kg/injection, schedule: Q01DX009 (ip), vehicle: saline); 250 % of control and 263 % of control (dose: 100.0 mg/kg/injection, schedule: Q04DX003 (ip), vehicle: saline). In addition, the T/C runs as follows: (dose: 150.0 mg/kg/injection, schedule: Q04DX003 (ip), vehicle: saline) 104 % of control; (dose: 2.5 micrograms/kg/injection, schedule: Q01DX009 (ip), vehicle: saline) 90 % of control; (dose: 5.0 micrograms/kg/injection, schedule: Q01DX009 (ip), vehicle: saline) 95 % of control; (dose: 10.0 micrograms/kg/injection, schedule: Q01DX009 (ip), vehicle: saline) 100 % of control.
Consider `O=c1c2ccccc2ncn1-c1ccc(Cl)cc1`, for which the T/C runs as follows: under setting [3], 97 % of control; under setting [4], 100 % of control; under setting [5], 100 % of control.
As to `NC(=O)c1c(N)sc2c1CCCC2`, the T/C runs as follows: under setting [6], 86 % of control; under setting [7], 86 % of control; under setting [8], 95 % of control.
Regarding `Nc1ccc(OCCCc2c(-c3ccccc3)nc(N)[nH]c2=O)cc1`, the T/C is, setting by setting: under setting [8], 100 % of control; under setting [3], 99 % of control; under setting [4], 108 % of control.
As for `CCCCCCCCCCCCCCCC[N+](C)(C)C(C)c1ccc(OC)cc1` (stereo not given), the T/C (dose: 6.25 mg/kg/injection, schedule: Q04DX003 (ip), vehicle: saline with Tween-80) was 123 % of control.
In the case of `O=NN(CCCl)C(=O)Nc1ccc(Cl)cc1`, the T/C reads like this: (dose: 8.2 mg/kg/injection, schedule: Q04DX003 (ip), vehicle: saline with Tween-80) 195 % of control; under setting [9], 195 % of control; (dose: 18.75 mg/kg/injection, schedule: Q04DX003 (ip), vehicle: saline with Tween-80) 200 % of control.
`COc1cc(C=Nc2cc(Br)cc(Br)c2)ccc1N(CCCl)CCCl`: the T/C reads like this: (dose: 18.75 mg/kg/injection, schedule: Q04DX003 (ip), vehicle: other) 204 % of control; (dose: 22.0 mg/kg/injection, schedule: Q04DX003 (ip), vehicle: saline with Tween-80) 200 % of control; (dose: 33.0 mg/kg/injection, schedule: Q04DX003 (ip), vehicle: saline with Tween-80) 222 % of control; (dose: 37.5 mg/kg/injection, schedule: Q04DX003 (ip), vehicle: other) 250 % of control; under setting [10], 218 % of control; (dose: 60.0 mg/kg/injection, schedule: Q04DX003 (ip), vehicle: saline with Tween-80) 272 % of control. Moreover, the T/C (dose: 75.0 mg/kg/injection, schedule: Q04DX003 (ip), vehicle: other) was 250 % of control; the T/C (dose: 100.0 mg/kg/injection, schedule: Q04DX003 (ip), vehicle: saline sonified) is 154 % of control; the T/C (dose: 200.0 mg/kg/injection, schedule: Q04DX003 (ip), vehicle: saline sonified) is 263 % of control; the T/C (dose: 400.0 mg/kg/injection, schedule: Q04DX003 (ip), vehicle: saline sonified) was 118 % of control.
Take `COC(=O)c1ccc(CBr)cc1`: the T/C is, setting by setting: under setting [8], 103 % of control; under setting [11], 100 % of control; under setting [3], 92 % of control; under setting [10], 91 % of control; (dose: 100.0 mg/kg/injection, schedule: Q04DX003 (ip), vehicle: saline with Tween-80) 100 % of control.
Take `FC1(F)C(F)(F)C(Cl)(Cl)C1(Cl)Cl`: the T/C runs as follows: (dose: 75.0 mg/kg/injection, schedule: Q01DX001 (ip), vehicle: saline) 100 % of control; (dose: 150.0 mg/kg/injection, schedule: Q01DX001 (ip), vehicle: saline) 109 % of control; (dose: 300.0 mg/kg/injection, schedule: Q01DX001 (ip), vehicle: saline) 104 % of control.
With `O=C(C=C(C(F)(F)F)C(F)(F)F)c1cccc(C(F)(F)F)c1`, the T/C is, setting by setting: under setting [6], 110 % of control; under setting [7], 120 % of control; under setting [9], 122 % of control; under setting [8], 110 % of control; under setting [11], 122 % of control.
For `O=c1/c(=C\C=C\c2ccccc2)sc2n1CCN=2`, the T/C was 92 % of control under setting [3], 92 % of control under setting [4] and 92 % of control under setting [5].
Consider `Oc1ccc(Nc2ccnc3cc(Cl)ccc23)cc1CN(CCCl)CCCl`, for which the T/C was 177 % of control (dose: 1.25 mg/kg/injection, schedule: Q01DX009 (ip), vehicle: saline); 194 % of control under setting [1]; 163 % of control (dose: 3.3 mg/kg/injection, schedule: Q04DX003 (ip), vehicle: saline); 150 % of control (dose: 5.0 mg/kg/injection, schedule: Q01DX009 (ip), vehicle: saline); 163 % of control under setting [2]; 160 % of control (dose: 10.0 mg/kg/injection, schedule: Q04DX003 (ip), vehicle: saline with Tween-80).
